In ChEMBL document CHEMBL5291721, “A preclinical secondary pharmacology resource illuminates target-adverse drug reaction associations of marketed drugs” (Nat Commun, 2023) one finds AC50 data, which are given here for 32 compounds.

What is called AC50 is the concentration at which the activity in the assay is half-maximal.

In test [1] the target is Sodium-dependent serotonin transporter (Homo sapiens, UniProt P31645).
Test [2] deals with T1, Muscarinic acetylcholine receptor M1 (Homo sapiens, UniProt P11229).
T1 sequence (P11229 whole entry): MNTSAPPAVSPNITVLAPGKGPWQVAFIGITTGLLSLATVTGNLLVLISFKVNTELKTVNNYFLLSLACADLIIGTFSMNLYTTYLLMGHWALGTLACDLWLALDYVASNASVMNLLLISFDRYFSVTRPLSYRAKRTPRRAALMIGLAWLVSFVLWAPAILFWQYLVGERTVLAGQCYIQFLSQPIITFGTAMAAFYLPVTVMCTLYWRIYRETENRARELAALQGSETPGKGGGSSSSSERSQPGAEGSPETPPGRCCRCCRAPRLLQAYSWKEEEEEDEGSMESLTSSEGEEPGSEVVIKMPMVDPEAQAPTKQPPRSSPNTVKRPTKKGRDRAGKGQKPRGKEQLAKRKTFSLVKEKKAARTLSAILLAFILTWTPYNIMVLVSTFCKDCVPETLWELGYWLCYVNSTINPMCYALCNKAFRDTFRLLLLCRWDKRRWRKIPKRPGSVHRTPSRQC
Type of test: functional, cell-based.

The target in another test is T2, Estrogen receptor (Homo sapiens, UniProt P03372).
T2 sequence (P03372 whole entry): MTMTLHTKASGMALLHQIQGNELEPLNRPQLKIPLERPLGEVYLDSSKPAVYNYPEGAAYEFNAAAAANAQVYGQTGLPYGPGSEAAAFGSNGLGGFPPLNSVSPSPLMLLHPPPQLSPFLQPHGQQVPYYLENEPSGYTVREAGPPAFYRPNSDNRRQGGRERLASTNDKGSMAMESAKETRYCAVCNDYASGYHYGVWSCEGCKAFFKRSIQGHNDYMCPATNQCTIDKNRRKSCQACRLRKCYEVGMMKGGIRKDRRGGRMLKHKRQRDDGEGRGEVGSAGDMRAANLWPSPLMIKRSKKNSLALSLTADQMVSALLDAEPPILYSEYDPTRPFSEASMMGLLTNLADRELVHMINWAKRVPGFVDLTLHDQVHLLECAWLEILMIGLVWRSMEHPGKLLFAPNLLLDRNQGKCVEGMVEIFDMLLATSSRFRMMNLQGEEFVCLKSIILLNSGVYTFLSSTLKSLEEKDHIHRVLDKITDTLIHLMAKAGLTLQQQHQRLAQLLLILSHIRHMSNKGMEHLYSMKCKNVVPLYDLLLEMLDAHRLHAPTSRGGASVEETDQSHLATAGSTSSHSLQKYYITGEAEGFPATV

For test [3], the target named is T3, Prostaglandin G/H synthase 1 (Rattus norvegicus, UniProt Q63921).
T3 sequence (Q63921 whole entry): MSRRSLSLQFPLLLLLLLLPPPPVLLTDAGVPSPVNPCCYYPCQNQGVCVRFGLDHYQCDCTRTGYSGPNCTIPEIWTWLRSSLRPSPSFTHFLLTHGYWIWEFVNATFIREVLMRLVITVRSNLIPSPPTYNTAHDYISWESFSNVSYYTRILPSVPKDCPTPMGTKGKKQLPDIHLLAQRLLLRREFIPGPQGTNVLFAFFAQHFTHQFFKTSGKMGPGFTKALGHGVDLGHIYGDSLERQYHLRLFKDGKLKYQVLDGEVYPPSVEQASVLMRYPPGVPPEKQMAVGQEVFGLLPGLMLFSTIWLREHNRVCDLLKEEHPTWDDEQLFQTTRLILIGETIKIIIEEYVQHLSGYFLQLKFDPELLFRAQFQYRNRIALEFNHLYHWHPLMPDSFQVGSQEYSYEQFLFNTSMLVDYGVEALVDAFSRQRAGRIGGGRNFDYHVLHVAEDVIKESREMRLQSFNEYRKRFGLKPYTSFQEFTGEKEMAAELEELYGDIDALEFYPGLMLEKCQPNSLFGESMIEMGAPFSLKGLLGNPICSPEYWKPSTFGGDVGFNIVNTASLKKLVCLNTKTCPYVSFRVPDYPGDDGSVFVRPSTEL
The test is classed as functional.

Test [4] has as its target T4, Alpha-2A adrenergic receptor (Homo sapiens, UniProt P08913).
T4 sequence (P08913 whole entry): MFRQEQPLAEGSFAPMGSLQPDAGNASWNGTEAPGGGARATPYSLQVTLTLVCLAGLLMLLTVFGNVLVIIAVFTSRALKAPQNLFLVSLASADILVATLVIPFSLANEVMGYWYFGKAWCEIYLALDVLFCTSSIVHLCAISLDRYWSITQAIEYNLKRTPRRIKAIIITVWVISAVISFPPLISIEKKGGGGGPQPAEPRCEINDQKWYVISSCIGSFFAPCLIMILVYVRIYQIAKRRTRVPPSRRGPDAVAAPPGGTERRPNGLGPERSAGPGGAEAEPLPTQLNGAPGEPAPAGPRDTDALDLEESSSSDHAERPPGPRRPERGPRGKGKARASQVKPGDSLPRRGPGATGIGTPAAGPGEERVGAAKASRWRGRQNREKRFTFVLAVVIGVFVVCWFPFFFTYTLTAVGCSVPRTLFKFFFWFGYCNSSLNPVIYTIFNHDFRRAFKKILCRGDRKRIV
Type of test: functional, cell-based.

A further test has as its target T5, Adenosine receptor A1 (Homo sapiens, UniProt P30542).
T5 sequence (P30542 whole entry): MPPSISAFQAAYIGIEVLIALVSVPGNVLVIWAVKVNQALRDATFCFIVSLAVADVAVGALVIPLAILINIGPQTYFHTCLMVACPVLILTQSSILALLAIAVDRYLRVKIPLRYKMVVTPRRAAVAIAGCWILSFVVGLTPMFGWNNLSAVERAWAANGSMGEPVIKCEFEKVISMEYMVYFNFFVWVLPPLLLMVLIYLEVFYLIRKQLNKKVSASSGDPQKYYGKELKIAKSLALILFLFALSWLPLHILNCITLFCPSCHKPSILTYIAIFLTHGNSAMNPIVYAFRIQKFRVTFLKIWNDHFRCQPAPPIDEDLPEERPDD

Test [5] has as its target Voltage-dependent L-type calcium channel subunit alpha-1C (Rattus norvegicus, UniProt P22002). Type of test: functional.
For test [6], the target named is Sodium-dependent dopamine transporter (Homo sapiens, UniProt Q01959).
Note: assay procedure not described here.

Chain of Sodium-dependent serotonin transporter (P31645 whole entry): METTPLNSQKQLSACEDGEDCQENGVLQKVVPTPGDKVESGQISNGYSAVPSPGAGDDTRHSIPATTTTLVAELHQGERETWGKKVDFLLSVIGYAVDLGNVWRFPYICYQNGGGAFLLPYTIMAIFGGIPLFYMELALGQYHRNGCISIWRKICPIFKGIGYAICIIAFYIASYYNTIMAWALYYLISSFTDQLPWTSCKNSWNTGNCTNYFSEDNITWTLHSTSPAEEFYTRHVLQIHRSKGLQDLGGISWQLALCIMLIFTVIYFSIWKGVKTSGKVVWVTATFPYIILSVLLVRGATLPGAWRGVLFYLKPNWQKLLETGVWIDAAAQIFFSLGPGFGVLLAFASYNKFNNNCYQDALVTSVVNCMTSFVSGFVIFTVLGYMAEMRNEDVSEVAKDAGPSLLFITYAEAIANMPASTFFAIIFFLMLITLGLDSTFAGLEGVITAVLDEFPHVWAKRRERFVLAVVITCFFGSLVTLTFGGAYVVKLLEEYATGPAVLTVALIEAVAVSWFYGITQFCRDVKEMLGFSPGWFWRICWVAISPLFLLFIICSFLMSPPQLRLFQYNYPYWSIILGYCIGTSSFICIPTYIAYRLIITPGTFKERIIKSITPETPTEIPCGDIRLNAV
Chain of Voltage-dependent L-type calcium channel subunit alpha-1C (P22002 whole entry): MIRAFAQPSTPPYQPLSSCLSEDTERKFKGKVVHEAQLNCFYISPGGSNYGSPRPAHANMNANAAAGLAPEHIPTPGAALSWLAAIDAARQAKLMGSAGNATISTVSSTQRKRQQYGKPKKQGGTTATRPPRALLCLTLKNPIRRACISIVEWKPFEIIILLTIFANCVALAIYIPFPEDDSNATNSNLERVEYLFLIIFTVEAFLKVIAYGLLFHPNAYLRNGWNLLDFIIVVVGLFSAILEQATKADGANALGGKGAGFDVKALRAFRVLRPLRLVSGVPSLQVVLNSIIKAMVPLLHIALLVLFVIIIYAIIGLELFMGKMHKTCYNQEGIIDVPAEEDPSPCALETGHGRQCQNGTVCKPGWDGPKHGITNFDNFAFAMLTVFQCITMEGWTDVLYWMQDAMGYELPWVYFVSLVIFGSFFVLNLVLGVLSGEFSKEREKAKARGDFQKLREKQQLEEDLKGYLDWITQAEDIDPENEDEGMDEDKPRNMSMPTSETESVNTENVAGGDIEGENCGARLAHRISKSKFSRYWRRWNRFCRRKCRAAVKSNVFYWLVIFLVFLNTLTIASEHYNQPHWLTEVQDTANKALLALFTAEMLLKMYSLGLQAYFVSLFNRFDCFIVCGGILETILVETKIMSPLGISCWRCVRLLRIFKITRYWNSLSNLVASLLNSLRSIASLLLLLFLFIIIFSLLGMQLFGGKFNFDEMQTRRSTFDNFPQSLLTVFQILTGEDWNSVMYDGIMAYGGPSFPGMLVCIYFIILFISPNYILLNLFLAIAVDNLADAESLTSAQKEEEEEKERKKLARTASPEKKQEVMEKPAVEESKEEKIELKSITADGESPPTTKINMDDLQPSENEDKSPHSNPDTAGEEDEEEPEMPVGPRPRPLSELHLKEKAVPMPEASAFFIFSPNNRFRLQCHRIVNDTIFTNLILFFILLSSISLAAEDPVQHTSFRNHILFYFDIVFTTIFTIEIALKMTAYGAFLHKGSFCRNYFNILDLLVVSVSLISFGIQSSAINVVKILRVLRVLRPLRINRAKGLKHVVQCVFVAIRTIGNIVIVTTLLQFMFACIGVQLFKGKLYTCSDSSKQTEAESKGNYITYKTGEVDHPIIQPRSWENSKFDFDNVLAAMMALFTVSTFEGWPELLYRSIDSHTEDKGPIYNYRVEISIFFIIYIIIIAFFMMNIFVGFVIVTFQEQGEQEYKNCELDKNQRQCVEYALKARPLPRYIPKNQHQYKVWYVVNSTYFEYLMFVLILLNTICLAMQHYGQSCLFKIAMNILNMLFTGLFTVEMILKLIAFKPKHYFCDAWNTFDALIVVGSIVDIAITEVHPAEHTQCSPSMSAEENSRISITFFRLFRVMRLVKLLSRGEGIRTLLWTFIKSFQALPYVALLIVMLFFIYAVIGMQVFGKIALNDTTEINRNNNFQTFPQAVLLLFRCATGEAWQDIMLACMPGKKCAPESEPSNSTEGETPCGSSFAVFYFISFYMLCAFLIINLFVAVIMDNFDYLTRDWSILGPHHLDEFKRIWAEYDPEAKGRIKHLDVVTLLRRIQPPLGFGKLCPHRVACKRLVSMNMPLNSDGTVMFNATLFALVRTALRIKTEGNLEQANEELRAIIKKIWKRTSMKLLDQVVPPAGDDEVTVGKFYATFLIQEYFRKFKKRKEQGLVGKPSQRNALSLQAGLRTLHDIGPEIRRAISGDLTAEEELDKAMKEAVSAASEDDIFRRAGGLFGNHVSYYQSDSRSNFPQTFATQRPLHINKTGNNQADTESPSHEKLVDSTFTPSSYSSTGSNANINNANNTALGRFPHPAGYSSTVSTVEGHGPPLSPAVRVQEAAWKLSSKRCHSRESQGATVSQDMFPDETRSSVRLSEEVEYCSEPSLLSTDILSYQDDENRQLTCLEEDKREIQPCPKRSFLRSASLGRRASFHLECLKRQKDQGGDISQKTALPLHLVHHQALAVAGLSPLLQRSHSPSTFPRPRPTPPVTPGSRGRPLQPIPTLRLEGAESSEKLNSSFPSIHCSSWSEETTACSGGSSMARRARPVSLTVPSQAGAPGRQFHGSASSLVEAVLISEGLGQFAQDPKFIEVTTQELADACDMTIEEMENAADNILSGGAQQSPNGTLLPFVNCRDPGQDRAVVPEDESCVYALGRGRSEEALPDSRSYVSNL
Chain of Sodium-dependent dopamine transporter (Q01959 whole entry): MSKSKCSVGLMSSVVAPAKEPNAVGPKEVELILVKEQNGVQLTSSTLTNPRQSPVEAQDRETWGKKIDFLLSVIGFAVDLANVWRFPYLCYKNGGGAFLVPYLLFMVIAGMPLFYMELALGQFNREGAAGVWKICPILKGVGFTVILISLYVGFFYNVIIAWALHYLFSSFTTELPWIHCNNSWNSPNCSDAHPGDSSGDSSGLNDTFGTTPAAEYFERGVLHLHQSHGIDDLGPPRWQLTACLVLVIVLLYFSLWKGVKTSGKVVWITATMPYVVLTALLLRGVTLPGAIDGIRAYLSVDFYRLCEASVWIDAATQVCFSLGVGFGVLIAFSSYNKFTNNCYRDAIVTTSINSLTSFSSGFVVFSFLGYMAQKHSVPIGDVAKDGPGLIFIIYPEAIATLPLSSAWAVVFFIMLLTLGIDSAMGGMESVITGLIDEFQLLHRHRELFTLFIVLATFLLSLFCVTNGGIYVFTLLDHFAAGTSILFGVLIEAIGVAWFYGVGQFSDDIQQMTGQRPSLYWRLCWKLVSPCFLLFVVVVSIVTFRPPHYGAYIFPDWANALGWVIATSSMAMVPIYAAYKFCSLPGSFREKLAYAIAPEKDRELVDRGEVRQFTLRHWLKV

`CN1CCC[C@@H]1Cc1c[nH]c2ccc(CCS(=O)(=O)c3ccccc3)cc12` yielded an AC50 in test [1] greater than 30 µM.

With `COc1nccnc1NS(=O)(=O)c1ccc(N)cc1`, the AC50 in test [1] and in test [2] was greater than 30 µM in each case.

In test [2], `O=C(Nc1cccc2c(=O)cc(-c3nnn[nH]3)oc12)c1ccc(OCCCCc2ccccc2)cc1` displayed an AC50 greater than 30 µM.

Regarding `NC(=O)c1nc(F)c[nH]c1=O`, the AC50 (on Estrogen receptor; in test [1]; in test [2]) was greater than 30 µM each time.

For `CN(C)CCCN1C(=O)c2cc([N+](=O)[O-])ccc2Oc2ccccc21`, the figures for the concentration at half-maximal activity (AC50) (at Estrogen receptor; in test [1]; in test [2]) were greater than 30 µM, 0.271 µM and greater than 30 µM, respectively.

As to `CC(/C=C1\SC(=S)N(CC(=O)O)C1=O)=C\c1ccccc1`, the AC50 in test [3] was greater than 30 µM; in test [4], greater than 30 µM; at Adenosine receptor A1, 15 µM; in test [5] it was greater than 30 µM; in test [6], 20 µM.

Consider `O=S(=O)(O)CCS` [2-MERCAPTOETHANESULFONIC ACID], for which, at Estrogen receptor, the AC50 was greater than 30 µM.

For `CNCC[C@@H](Oc1ccccc1C)c1ccccc1` [ATOMOXETINE], the AC50 (in test [3]; on Adenosine receptor A1; in test [5]) was greater than 30 µM throughout.

On to `C=C(C)[C@@H]1CCC(C)=C[C@H]1c1c(O)cc(CCCCC)cc1O` [CANNABIDIOL], for which the AC50 in test [3] was 0.771 µM; in test [4], greater than 10 µM; on Adenosine receptor A1 it was greater than 30 µM; in test [6], 28 µM.

Take `CO/N=C(\C(=O)N[C@@H]1C(=O)N2C(C(=O)O)=C(COC(N)=O)CS[C@H]12)c1ccco1` [CEFUROXIME]: the AC50 (in test [3]; in test [4]; on Adenosine receptor A1; in test [6]) was greater than 30 µM each time.

Regarding `O=C(O)CCCc1ccc(N(CCCl)CCCl)cc1` [CHLORAMBUCIL], the AC50 at Estrogen receptor was greater than 30 µM.

On to `CN(C)CCN(Cc1ccc(Cl)cc1)c1ccccn1` [CHLOROPYRAMINE], for which half-maximal activity in test [1] (AC50) was put at 0.0202 µM.

For `N[C@@H](CSSC[C@H](N)C(=O)O)C(=O)O` [CYSTINE], the AC50 in test [1] and in test [2] was greater than 30 µM in each case.

`Cn1c(=O)c2c(ncn2CC(O)CO)n(C)c1=O` (stereo not given) [DYPHYLLINE]: the half-maximal activity concentration (AC50) at Estrogen receptor is greater than 30 µM.

On to `CCC(=O)O[C@@H](O[P@](=O)(CCCCc1ccccc1)CC(=O)N1C[C@H](C2CCCCC2)C[C@H]1C(=O)O)C(C)C` [FOSINOPRIL], for which the concentration at half-maximal activity (AC50) (on Estrogen receptor; in test [1]; in test [4]) was greater than 30 µM in each case.

With `Nc1nc(O)c2ncn(COC(CO)CO)c2n1` [GANCICLOVIR], the AC50 (in test [3]; in test [4]; on Adenosine receptor A1; in test [5]; in test [6]) was greater than 30 µM throughout.

The compound `CC1(C)O[C@@H]2C[C@H]3[C@@H]4CCC5=CC(=O)CC[C@]5(C)[C@@]4(F)[C@@H](O)C[C@]3(C)[C@]2(C(=O)CCl)O1` [HALCINONIDE] had a half-maximal activity concentration (AC50) at Estrogen receptor greater than 30 µM.

`CC[C@@H](CO)NC(=O)[C@@H]1C=C2c3cccc4[nH]cc(c34)C[C@H]2N(C)C1` [METHYLERGONOVINE]: the AC50 in test [3] is greater than 30 µM; in test [4], 17 µM; at Adenosine receptor A1, greater than 30 µM; in test [6], greater than 30 µM.

As to `CCOc1cc(N)c(Cl)cc1C(=O)NCC1CN(Cc2ccc(F)cc2)CCO1` (stereo not given) [MOSAPRIDE], on Estrogen receptor, the AC50 is greater than 30 µM.

At Estrogen receptor, `CN1CCC[C@H]1c1cccnc1` [NICOTINE] had an AC50 greater than 30 µM.

`C#C[C@]1(O)CC[C@H]2[C@@H]3CCC4=C(CCC(=O)C4)[C@H]3CC[C@@]21C` [NORETHYNODREL]: the AC50 in test [2] amounted to […].

As to `CNCCC=C1c2ccccc2CCc2ccccc21` [NORTRIPTYLINE], the AC50 in test [3] was greater than 30 µM; on Adenosine receptor A1, greater than 30 µM; in test [5] it was greater than 30 µM; in test [6], 3.2 µM.

Take `CN(C)c1cc(CNCC(C)(C)C)c(O)c2c1C[C@H]1C[C@H]3[C@H](N(C)C)C(O)=C(C(N)=O)C(=O)[C@@]3(O)C(O)=C1C2=O` [OMADACYCLINE]: the AC50 at Estrogen receptor is greater than 30 µM; in test [1], greater than 30 µM; in test [3] it was 0.645 µM; in test [4], greater than 30 µM; on Adenosine receptor A1, greater than 30 µM; in test [6], greater than 30 µM.

With `COc1ccc(Cc2nccc3cc(OC)c(OC)cc23)cc1OC` [PAPAVERINE], the concentration at half-maximal activity (AC50) (in test [3]; in test [4]; at Adenosine receptor A1; in test [5]; in test [6]) was greater than 30 µM each time.

Consider `CN(C)CCC(c1ccccc1)c1ccccn1` (stereo not given) [PHENIRAMINE], for which the AC50 in test [1] was 7.98 µM; in test [2], greater than 30 µM.

In the case of `CC(C)COc1ccc(CNC(=O)N(Cc2ccc(F)cc2)C2CCN(C)CC2)cc1` [PIMAVANSERIN], the AC50 (at Estrogen receptor; in test [1]) was greater than 30 µM each time.

Consider `CNC(=O)c1cc(Oc2ccc(NC(=O)Nc3ccc(Cl)c(C(F)(F)F)c3)c(F)c2)ccn1` [REGORAFENIB], for which the AC50 on Estrogen receptor is greater than 30 µM; in test [1], greater than 30 µM; in test [3], greater than 30 µM; in test [6], 6.33 µM.

Take `O=C(Nc1c(Cl)cncc1Cl)c1ccc(OC(F)F)c(OCC2CC2)c1` [ROFLUMILAST]: the AC50 (in test [3]; in test [4]; on Adenosine receptor A1; in test [6]) was greater than 30 µM each time.

On Estrogen receptor, `CCCCCCCCNC(C)C(O)c1ccc(SC(C)C)cc1` (stereo not given) [SULOCTIDIL] returned an AC50 of 16.7 µM.

For `CN1CCN(CCCN2c3ccccc3Sc3ccc(S(=O)(=O)N(C)C)cc32)CC1` [THIOPROPERAZINE], the AC50 in test [1] is 17.3 µM; in test [4] it was greater than 30 µM.

As for `CCCCCCCCCCCCCCCC(=O)OC/C=C(C)/C=C/C=C(C)/C=C/C1=C(C)CCCC1(C)C` [VITAMIN A PALMITATE], the AC50 in test [1] and in test [2] was greater than 30 µM each time.

In the case of `Cc1cc(CC(=O)O)n(C)c1C(=O)c1ccc(Cl)cc1` [ZOMEPIRAC], the half-maximal activity concentration (AC50) in test [3] is 16 µM; in test [4], greater than 30 µM; at Adenosine receptor A1 it was greater than 30 µM; in test [5], greater than 30 µM; in test [6] it was greater than 30 µM.
